Reference: US20240123078A1, “COMPOUNDS AND METHODS FOR MODULATING IMMUNE-RELATED PROTEINS” (Vividion Therapeutics, Inc., priority 2019, published 2024)

How the values were obtained:
Assay in all cases: Cysteine reactivity ABPP
Format in all cases: binding
[1] = biological target: T1, PFKFB3 6-phosphofructo-2-kinase/fructose-2,6-bisphosphatase 3 C155 (Q16875) (Homo sapiens, UniProt Q16875)
T1 construct: endogenous in cells; host or cells: primary human T cells
Protocol: (§1) Activated or expanded primary human T cells were re-suspended in RPMI (1×10^6 cells/mL) containing 10% fetal bovine serum (FBS), penicillin (100 U/mL), streptomycin ([…]), and L-glutamine (2 mM). The cells were treated with DMSO or compounds for 3 h, pelleted (524 g, 5 min), washed with PBS, and lysed by sonication (2×8 pulses). Soluble and particulate proteomic fractions were separated by ultracentrifugation (100,000 g, 45 min), and protein concentration was normalized to 1.7 mg/mL using a standard DC protein assay (Bio-Rad). The resulting proteomes were analyzed by competitive isotopic Tandem Orthogonal Proteolysis Activity-Based Protein Profiling (isoTOP-ABPP).
(§2) The heavy/light isoTOP-ABPP ratios (R values) for each unique peptide (DMSO/compound treated) were quantified with in-house CIMAGE software (Weerapana et al., 2010) using default parameters (3 MS1 acquisitions per peak and signal to noise threshold set to 2.5). Site-specific engagement of cysteine residues was assessed by blockade of IA-alkyne probe labeling. […] Ratios for unique peptide sequences were calculated for each experiment; overlapping peptides with the same modified cysteine (e.g., different charge states, elution times or tryptic termini) were grouped together and the median ratio was reported as the final ratio (R). Additionally, ratios for peptide sequences containing multiple cysteines were grouped together. When aggregating data across experimental replicates, the mean of each experimental median R was reported. The peptide ratios reported by CIMAGE were further filtered to ensure the removal or correction of low-quality ratios in each individual dataset. The quality filters applied were the following: removal of half-tryptic peptides, removal of peptides with more than one tryptic miscleaved, removal of peptides with R=20 and only a single MS2 event triggered during the elution of the parent ion, removal of non-unique peptides. Further filtering was then performed as described below for each experiment type.
(§3) Samples (500 μL, 1.7 mg/mL) were treated with iodoacetamide desthiobiotin (IA-DTB, 5 μL of 10 mM stock in DMSO, final concentration: 100 μM) for 1 h at ambient temperature. Ice-cold MeOH (500 μL) and CHCl3 (200 μL) were then added, the mixture was vortexed and centrifuged (10,000 g, 10 min, 4° C.) to afford a protein disc at the interface of CHCl3 and aqueous layers. Both layers were aspirated without perturbing the disk, which was re-suspended in cold methanol (500 μL) and CHCl3 (200 μL) by sonication. The proteins were pelleted (10,000 g, 10 min, 4° C.), and the resulting pellets were re-suspended in a buffer (90 μL) containing 9M urea, 10 mM DTT and 50 mM triethylammonium bicarbonate ( 1/20 dilution of 1.0 M stock solution, pH 8.5) by thorough pipetting up and down. The resulting mixture was heated at 65° C. for 20 min. Sample was cooled to room temp, iodoacetamide (10 μL, 500 mM solution in H2O) was added, and the samples were incubated at 37° C. for 30 min with shaking.
(§4) At individual TMT experiment level, the following filters were applied to remove low-quality peptides: removal of non-unique peptides; removal of half-tryptic peptides; removal of peptides with more than one internal miscleaved site; removal of peptides with low (<10,000) sum of reporter ion intensities for control channels, and peptides with high variation between the replicate control channels (coefficient of variance >0.5). R values (compound-treated vs. DMSO-treated) for each peptide entry were calculated using the reporter ion intensities of DMSO and compound treated TMT channels for each treatment group with a maximum ratio cap of 20. […]

[2] = biological target: T2, KAT8 Histone acetyltransferase KAT8 C416 (Q9H7Z6) (Homo sapiens, UniProt Q9H7Z6); conditions: 100
T2 construct: endogenous in cells; host or cells: primary human T cells
T2 sequence (Q9H7Z6 1-458): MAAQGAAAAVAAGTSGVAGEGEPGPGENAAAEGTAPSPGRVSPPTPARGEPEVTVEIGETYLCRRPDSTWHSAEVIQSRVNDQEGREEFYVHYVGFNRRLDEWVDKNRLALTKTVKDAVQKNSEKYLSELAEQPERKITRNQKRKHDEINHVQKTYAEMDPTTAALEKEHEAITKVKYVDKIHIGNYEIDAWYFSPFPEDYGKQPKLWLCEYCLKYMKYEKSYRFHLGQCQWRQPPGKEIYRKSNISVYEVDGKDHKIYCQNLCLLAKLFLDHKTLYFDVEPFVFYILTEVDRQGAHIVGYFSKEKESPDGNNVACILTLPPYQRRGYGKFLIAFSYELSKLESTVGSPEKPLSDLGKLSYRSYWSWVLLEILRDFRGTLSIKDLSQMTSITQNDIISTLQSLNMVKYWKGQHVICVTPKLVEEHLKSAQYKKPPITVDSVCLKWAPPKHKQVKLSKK
Protocol: as §1, §2, §3, §4

[3] = biological target: T3, ATP2A2 Sarcoplasmic/endoplasmic reticulum calcium ATPase 2 C997 (P16615) (Homo sapiens, UniProt P16615)
T3 construct: endogenous in cells; host or cells: primary human T cells
T3 sequence (P16615 whole entry, one chain of several): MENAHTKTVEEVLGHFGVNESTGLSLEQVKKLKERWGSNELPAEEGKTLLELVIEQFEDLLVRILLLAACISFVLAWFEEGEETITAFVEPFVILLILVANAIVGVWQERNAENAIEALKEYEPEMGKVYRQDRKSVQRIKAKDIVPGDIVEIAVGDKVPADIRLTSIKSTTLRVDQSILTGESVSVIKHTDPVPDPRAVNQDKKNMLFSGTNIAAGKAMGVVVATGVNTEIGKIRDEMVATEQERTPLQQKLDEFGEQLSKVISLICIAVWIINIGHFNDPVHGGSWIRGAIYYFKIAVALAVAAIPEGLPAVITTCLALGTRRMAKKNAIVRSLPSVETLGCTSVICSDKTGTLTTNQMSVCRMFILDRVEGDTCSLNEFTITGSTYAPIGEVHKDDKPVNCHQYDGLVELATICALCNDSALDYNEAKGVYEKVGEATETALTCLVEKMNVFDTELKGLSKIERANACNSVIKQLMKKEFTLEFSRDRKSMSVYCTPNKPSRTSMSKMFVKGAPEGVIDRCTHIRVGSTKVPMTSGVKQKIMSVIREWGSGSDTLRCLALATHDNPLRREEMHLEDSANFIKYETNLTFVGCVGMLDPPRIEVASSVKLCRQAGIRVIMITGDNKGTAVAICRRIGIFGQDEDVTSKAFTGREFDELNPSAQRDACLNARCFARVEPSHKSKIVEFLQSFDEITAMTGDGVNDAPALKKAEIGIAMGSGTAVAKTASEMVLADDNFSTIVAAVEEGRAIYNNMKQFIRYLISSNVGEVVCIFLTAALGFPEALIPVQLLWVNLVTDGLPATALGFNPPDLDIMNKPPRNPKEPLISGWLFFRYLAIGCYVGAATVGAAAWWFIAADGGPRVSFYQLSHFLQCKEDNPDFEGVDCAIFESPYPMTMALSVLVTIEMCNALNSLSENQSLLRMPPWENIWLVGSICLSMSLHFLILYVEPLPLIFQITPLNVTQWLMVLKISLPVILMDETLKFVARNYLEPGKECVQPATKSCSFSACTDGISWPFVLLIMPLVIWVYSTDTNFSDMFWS
Protocol: as §1, §2, §3, §4

[4] = biological target: T4, PFKFB3 6-phosphofructo-2-kinase/fructose-2,6-bisphosphatase 3 C440 (Q16875) (Homo sapiens, UniProt Q16875); conditions: 100
T4 construct: endogenous in cells; host or cells: primary human T cells
T4 sequence (Q16875 whole entry, one chain of several): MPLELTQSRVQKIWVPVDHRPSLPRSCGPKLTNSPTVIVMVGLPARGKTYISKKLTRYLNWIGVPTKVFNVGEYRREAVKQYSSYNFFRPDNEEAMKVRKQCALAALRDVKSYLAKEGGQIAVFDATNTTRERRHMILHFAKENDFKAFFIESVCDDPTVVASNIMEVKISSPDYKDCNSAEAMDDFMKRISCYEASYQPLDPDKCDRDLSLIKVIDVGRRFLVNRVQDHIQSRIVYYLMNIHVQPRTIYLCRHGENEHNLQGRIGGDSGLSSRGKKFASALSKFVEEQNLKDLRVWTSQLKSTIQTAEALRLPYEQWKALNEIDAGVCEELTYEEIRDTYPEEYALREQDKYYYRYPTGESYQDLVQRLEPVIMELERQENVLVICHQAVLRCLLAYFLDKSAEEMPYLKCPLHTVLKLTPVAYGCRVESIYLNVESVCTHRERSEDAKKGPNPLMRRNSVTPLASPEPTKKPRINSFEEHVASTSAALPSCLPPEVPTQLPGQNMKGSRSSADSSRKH
Protocol: as §1, §2, §3, §4

[5] = biological target: T5, PTPN11 Tyrosine-protein phosphatase non-receptor type 11 C259 (Q06124) (Homo sapiens, UniProt Q06124)
T5 construct: endogenous in cells; host or cells: primary human T cells
T5 sequence (Q06124 1-593): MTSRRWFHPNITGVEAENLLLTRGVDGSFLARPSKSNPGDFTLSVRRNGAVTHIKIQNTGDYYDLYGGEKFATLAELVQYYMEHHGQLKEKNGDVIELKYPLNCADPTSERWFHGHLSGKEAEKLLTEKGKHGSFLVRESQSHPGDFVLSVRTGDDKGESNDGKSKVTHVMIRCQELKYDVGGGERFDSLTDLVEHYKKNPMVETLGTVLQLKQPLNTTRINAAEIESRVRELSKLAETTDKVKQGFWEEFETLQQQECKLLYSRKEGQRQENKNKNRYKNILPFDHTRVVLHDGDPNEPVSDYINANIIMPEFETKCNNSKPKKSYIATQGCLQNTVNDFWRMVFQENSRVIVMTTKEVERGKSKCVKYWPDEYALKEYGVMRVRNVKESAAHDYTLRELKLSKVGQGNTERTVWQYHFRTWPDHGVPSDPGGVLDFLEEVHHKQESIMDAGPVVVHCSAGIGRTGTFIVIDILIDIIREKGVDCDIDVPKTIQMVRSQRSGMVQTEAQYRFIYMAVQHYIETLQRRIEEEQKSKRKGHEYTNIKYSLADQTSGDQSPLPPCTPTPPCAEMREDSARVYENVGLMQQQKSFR
Protocol: as §1, §2, §3, §4

[6] = biological target: T6, TRANK1 TPR and ankyrin repeat-containing protein 1 C1319 (O15050) (Homo sapiens, UniProt O15050)
T6 construct: Soluble and particulate proteomic fractions were separated by ultracentrifugation; endogenous in cells; host or cells: primary human T cells
T6 sequence (O15050 whole entry, one chain of several): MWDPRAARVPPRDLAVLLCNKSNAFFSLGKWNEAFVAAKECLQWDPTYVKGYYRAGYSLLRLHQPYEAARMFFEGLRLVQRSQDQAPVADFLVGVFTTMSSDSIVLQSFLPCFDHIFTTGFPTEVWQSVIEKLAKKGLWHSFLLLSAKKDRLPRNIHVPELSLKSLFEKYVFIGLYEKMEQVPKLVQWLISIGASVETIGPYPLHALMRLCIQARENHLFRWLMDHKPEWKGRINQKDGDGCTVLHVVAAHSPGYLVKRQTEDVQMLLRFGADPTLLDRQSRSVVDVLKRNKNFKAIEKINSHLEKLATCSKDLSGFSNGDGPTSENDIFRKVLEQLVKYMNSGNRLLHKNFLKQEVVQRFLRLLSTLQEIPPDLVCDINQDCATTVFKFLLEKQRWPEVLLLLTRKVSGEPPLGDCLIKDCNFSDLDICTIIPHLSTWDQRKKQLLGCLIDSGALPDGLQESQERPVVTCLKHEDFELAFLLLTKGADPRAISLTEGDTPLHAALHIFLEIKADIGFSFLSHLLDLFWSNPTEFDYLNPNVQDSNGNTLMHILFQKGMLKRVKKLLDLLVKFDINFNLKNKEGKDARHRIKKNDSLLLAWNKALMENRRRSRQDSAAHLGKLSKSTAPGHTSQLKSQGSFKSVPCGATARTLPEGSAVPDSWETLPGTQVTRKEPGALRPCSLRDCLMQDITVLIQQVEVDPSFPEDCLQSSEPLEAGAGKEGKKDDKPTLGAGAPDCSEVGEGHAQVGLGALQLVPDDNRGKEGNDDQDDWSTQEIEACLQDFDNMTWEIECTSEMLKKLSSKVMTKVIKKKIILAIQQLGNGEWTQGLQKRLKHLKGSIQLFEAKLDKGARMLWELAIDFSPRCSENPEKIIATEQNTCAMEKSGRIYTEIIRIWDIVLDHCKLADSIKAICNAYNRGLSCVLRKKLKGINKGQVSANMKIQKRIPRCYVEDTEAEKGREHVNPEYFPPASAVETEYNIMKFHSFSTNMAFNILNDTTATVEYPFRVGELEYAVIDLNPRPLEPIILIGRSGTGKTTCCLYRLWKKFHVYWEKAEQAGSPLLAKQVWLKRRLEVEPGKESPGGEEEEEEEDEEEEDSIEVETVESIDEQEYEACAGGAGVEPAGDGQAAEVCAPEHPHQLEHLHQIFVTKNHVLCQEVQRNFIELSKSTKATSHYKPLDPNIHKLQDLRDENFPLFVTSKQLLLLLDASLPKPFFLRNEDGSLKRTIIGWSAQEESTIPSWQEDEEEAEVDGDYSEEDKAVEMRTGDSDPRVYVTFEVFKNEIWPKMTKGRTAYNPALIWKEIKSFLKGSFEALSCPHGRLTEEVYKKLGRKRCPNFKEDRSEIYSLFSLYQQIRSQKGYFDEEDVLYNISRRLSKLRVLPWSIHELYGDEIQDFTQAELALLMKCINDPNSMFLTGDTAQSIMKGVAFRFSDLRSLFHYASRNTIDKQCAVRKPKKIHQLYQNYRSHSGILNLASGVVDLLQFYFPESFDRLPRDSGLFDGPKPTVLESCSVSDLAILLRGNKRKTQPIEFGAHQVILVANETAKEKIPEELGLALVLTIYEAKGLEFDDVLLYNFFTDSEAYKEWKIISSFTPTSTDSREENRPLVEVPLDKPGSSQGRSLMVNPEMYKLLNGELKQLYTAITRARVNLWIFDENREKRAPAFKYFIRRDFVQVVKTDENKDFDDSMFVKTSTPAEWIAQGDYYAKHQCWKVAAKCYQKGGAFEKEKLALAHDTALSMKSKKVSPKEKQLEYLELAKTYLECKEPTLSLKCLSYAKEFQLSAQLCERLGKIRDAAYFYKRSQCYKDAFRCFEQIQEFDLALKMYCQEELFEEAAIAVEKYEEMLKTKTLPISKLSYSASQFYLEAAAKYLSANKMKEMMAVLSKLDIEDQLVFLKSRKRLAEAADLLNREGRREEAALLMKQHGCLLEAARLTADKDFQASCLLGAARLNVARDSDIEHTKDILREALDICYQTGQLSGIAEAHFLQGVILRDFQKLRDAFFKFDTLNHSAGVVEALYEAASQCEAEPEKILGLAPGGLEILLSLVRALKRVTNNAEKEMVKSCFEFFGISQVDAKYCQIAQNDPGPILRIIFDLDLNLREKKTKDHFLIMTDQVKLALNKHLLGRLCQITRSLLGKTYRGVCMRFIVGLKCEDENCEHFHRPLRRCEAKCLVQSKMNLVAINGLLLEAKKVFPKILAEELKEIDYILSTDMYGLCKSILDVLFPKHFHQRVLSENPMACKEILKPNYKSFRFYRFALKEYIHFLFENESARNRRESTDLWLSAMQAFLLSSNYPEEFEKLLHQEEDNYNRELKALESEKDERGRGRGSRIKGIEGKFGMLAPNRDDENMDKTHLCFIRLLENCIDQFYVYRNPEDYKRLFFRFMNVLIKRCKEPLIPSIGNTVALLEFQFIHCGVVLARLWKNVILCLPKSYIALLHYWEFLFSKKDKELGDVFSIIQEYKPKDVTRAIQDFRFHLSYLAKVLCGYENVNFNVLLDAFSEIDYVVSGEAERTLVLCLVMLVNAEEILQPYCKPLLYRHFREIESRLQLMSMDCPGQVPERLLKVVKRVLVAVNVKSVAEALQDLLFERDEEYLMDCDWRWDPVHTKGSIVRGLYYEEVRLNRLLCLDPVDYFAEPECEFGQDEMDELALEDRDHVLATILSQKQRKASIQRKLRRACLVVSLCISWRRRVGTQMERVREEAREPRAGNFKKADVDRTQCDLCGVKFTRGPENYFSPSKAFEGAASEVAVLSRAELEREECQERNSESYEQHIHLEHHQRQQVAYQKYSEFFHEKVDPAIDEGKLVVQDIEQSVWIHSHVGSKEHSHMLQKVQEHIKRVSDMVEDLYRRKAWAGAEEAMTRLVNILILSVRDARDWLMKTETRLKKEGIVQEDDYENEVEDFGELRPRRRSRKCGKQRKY
Protocol: as §1, §2, §3, §4

T1 sequence (Q16875 whole entry, one chain of several): as the sequence (Q16875 whole entry, one chain of several) above

**Q.** `O=C(CCl)N1CCN(S(=O)(=O)c2ccc(-c3ccncc3)cc2)CC1` [Compound B9] was tested. Which “Cysteine reactivity proteomic data” value ([1]; 100 μM) did it give?
**A.** 26.69

**Q.** And the “Cysteine reactivity proteomic data” value ([1]; 500 μM)?
**A.** 90.3507

**Q.** What about the “Cysteine reactivity proteomic data” value [2] of the same compound?
**A.** 67.98

**Q.** And the “Cysteine reactivity proteomic data” value [3]; 100?
**A.** 22.19

**Q.** And the “Cysteine reactivity proteomic data” value [4]?
**A.** 62.11

**Q.** And the “Cysteine reactivity proteomic data” value ([5]; 100 μM)?
**A.** 16.62

**Q.** What about the “Cysteine reactivity proteomic data” value ([5]; 500 μM) of the same compound?
**A.** 84.5074

**Q.** What about the “Cysteine reactivity proteomic data” value [6]; 100 of the same compound?
**A.** 82.88

**Q.** For `C=CC(=O)N(Cc1cccc(Cl)c1Cl)c1ccc(Oc2ccccc2)c(C(F)(F)F)c1` [Compound K4], which “Cysteine reactivity proteomic data” value ([1]; 500 μM) is on record?
**A.** −24.3435

**Q.** What about the “Cysteine reactivity proteomic data” value ([3]; 500 μM) of the same compound?
**A.** 61.48

**Q.** And the “Cysteine reactivity proteomic data” value ([5]; 500 μM)?
**A.** 28.7525

**Q.** What about the “Cysteine reactivity proteomic data” value ([6]; 500 μM) of the same compound?
**A.** 6.5
